Reference: ChEMBL document CHEMBL5634124, “Discovery and optimization of indirubin derivatives as novel ferroptosis inducers for the treatment of colon cancer” (Eur J Med Chem, 2023)
Values after ≈ are worked out from the molar mass of the structure shown. Active and inactive are the calls of the source. The rule behind the calls is not given here.

Key:
HCT-116 [1] = experiment: Cytotoxicity against human HCT-116 cells assessed as inhibition of cell viability incubated for 48 hrs by CCK8 assay; type: functional, cell-based; conditions: HCT-116, 48 h
[2] = Metabolic stability in human liver microsomes assessed as hepatic clearance rate at 0.5 uM incubated for 45 mins by LC/MS analysis; type: ADME, Microsome
[3] = Metabolic stability in human liver microsomes assessed as half life at 0.5 uM incubated for 45 mins by LC/MS analysis; type: ADME, Microsome
[4] = Metabolic stability in human liver microsomes assessed as intrinsic clearance at 0.5 uM incubated for 45 mins by LC/MS analysis; type: ADME, Microsome; conditions: read-out: CLH
[5] = Kinetic solubility of compound at pH 7.4; type: physicochemical; conditions: buffer, read-out: Kinetic_solubility
[6] = target: T1, Phospholipid hydroperoxide glutathione peroxidase GPX4 (Homo sapiens, UniProt P36969); experiment: Inhibition of GPX4 (unknown origin) incubated for 1 hr by absorbance based assay
T1 sequence (P36969 whole entry): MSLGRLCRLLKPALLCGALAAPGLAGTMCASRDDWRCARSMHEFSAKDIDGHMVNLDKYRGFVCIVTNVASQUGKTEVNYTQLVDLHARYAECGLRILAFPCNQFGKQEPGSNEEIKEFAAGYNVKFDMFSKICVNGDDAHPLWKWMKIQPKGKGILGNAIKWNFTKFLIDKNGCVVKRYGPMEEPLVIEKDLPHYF

HCT-116 [7] = experiment: Cytotoxicity against human HCT-116 cells assessed as inhibition of cell viability incubated for 48 hrs in presence of 3-MA by CCK8 assay; type: functional, cell-based
HCT-116 [8] = experiment: Antitumor activity against human HCT-116 cells xenografted in BALB/c nude mouse model assessed as tumor growth inhibition at 50 mg/kg, ip administered 4 times a week for 3 weeks relative to control; type: functional; conditions: HCT-116, 504 h, read-out: TGI
HCT-116 [9] = experiment: Induction of ferroptosis in human HCT-116 cells assessed as decrease in GSH level upto 1 uM incubated for 24 hrs; type: functional, cell-based
HCT-116 [10] = experiment: Effect on NCOA4 expression in human HCT-116 cells; type: functional, cell-based
[11] = target: T2, Phospholipid hydroperoxide glutathione peroxidase GPX4 (Homo sapiens) (UniProt P36969); experiment: Inhibition of GPX4 in human HCT-116 cells incubated for 24 hrs by Western blot analysis; type: cell-based; conditions: dose <= 1.0 µM
T2 sequence (whole entry): T1 sequence (P36969 whole entry)

[12] = Toxicity in BALB/c nude mouse model xenografted with human HCT-116 cells assessed as morphological change in liver at 25 to 50 mg/kg, ip administered 4 times a week for 3 weeks by H and E staining based analysis; type: organism-based; conditions: in vivo, 504 h, dose 25-50 mg/kg
HCT-116 [13] = experiment: Cytotoxicity against human HCT-116 cells assessed as inhibition of cell viability incubated for 48 hrs in presence of Z-VAD by CCK8 assay; type: functional, cell-based
[14] = target: T2, Phospholipid hydroperoxide glutathione peroxidase GPX4 (Homo sapiens); experiment: Inhibition of GPX4 in human HCT-116 cells at 0.5 uM by Western blot analysis; type: cell-based; conditions: time <= 48.0 hrs, TDE = time-dependent effect
[15] = target: T2, Phospholipid hydroperoxide glutathione peroxidase GPX4 (Homo sapiens); experiment: Inhibition of GPX4 in human HCT-116 cells assessed as increase in protein ubiquitination upto 1 uM incubated for 24 hrs by co-immunoprecipitation method; type: cell-based
[16] = Toxicity in BALB/c nude mouse model xenografted with human HCT-116 cells assessed as morphological change in lungs at 25 to 50 mg/kg, ip administered 4 times a week for 3 weeks by H and E staining based analysis; type: organism-based; conditions: in vivo, 504 h, dose 25-50 mg/kg
HCT-116 [17] = experiment: Induction of ferroptosis in human HCT-116 cells assessed as increase in Fe2+ level upto 1 uM incubated for 24 hrs by flow cytometry; type: functional, cell-based
HCT-116 [18] = experiment: Cytotoxicity against human HCT-116 cells assessed as inhibition of cell viability incubated for 48 hrs in presence of NAC by CCK8 assay; type: functional, cell-based
[19] = Toxicity in BALB/c nude mouse model xenografted with human HCT-116 cells assessed as morphological change in kidney at 25 to 50 mg/kg, ip administered 4 times a week for 3 weeks by H and E staining based analysis; type: organism-based; conditions: in vivo, 504 h, dose 25-50 mg/kg
[20] = Toxicity in BALB/c nude mouse model xenografted with human HCT-116 cells assessed as morphological change in spleen at 25 to 50 mg/kg, ip administered 4 times a week for 3 weeks by H and E staining based analysis; type: organism-based; conditions: in vivo, 504 h, dose 25-50 mg/kg
HCT-116 [21] = experiment: In vivo inhibition of GPX4 in human HCT-116 cells xenografted in BALB/c nude mouse model at 25 to 50 mg/kg, ip administered 4 times a week for 3 weeks by IHC analysis; type: functional, organism-based; conditions: dose 25-50 mg/kg
HCT-116 [22] = experiment: Induction of ferroptosis in human HCT-116 cells assessed as increase in intracellular MDA level incubated for 24 hrs; type: functional, cell-based; conditions: dose <= 1.0 µM
HCT-116 [23] = experiment: Effect on SLC7A11 expression in human HCT-116 cells; type: functional, cell-based
HCT-116 [24] = experiment: Induction of ferroptosis in human HCT-116 cells assessed as increase in intracellular lipid ROS level incubated for 24 hrs by CLSM analysis; type: functional, cell-based; conditions: dose <= 1.0 µM
HCT-116 [25] = experiment: Inhibition of colony formation in human HCT-116 cells treated for 48 hrs followed by replacement of growth medium without compound every other day measured after 2 weeks by crystal violet staining based assay; type: functional, cell-based; conditions: dose <= 1.0 µM
[26] = Toxicity in BALB/c nude mouse model xenografted with human HCT-116 cells assessed as morphological change in heart at 25 to 50 mg/kg, ip administered 4 times a week for 3 weeks by H and E staining based analysis; type: organism-based; conditions: in vivo, 504 h, dose 25-50 mg/kg
HCT-116 [27] = experiment: Cytotoxicity against human HCT-116 cells assessed as inhibition of cell viability incubated for 48 hrs in presence of Nec by CCK8 assay; type: functional, cell-based
HCT-116 [28] = experiment: Effect on FSP1 expression in human HCT-116 cells; type: functional, cell-based
HCT-116 [29] = experiment: Cytotoxicity against human HCT-116 cells assessed as inhibition of cell viability incubated for 48 hrs in presence of DFO by CCK8 assay; type: functional, cell-based
[30] = Toxicity in BALB/c nude mouse model xenografted with human HCT-116 cells assessed as body weight loss at 25 to 50 mg/kg, ip administered 4 times a week for 3 weeks; type: organism-based; conditions: in vivo, 504 h, dose 25-50 mg/kg
HCT-116 [31] = experiment: Antitumor activity against human HCT-116 cells xenografted in BALB/c nude mouse model assessed as tumor growth inhibition at 25 mg/kg, ip administered 4 times a week for 3 weeks relative to control; type: functional; conditions: HCT-116, 504 h, read-out: TGI
HCT-116 [32] = experiment: Antitumor activity against human HCT-116 cells xenografted in BALB/c nude mouse model assessed as morphological change in tumor at 25 to 50 mg/kg, ip administered 4 times a week for 3 weeks by H and E staining based analysis; type: functional, organism-based; conditions: dose 25-50 mg/kg
HCT-116 [33] = experiment: Induction of ferroptosis in human HCT-116 cells assessed as increase in intracellular lipid ROS level incubated for 24 hrs by flow cytometry; type: functional, cell-based; conditions: dose <= 1.0 µM
HCT-116 [34] = experiment: Cytotoxicity against human HCT-116 cells assessed as inhibition of cell viability incubated for 48 hrs in presence of Fer-1 by CCK8 assay; type: functional, cell-based
HCT-116 [35] = experiment: Effect on ACSL4 expression in human HCT-116 cells; type: functional, cell-based

C=CC(=O)N1CCN(c2ccc(NC(=O)c3ccc4c(c3)C(=O)/C(=C3/C(=O)Nc5ccccc53)N4)cc2)CC1
IC50 (HCT-116 [1]): > 20 µM

C#CC(=O)N1CCC(c2ccc(NC(=O)c3ccc4c(c3)C(=O)/C(=C3/C(=O)Nc5ccccc53)N4)cc2)CC1
IC50 (HCT-116 [1]): > 20 µM

O=C1Nc2ccccc2/C1=C1/Nc2ccc(C(=O)Nc3ccc(C4CCN(C(=O)CCl)CC4)cc3)cc2C1=O
IC50 (HCT-116 [1]): > 20 µM

O=C1Nc2ccccc2/C1=C1/Nc2ccccc2C1=O [INDIRUBIN]
IC50 (HCT-116 [1]): 19.5 µM | CLhep predicted at 0.5 µM [2]: 0.959 L/h/kg | half-life at 0.5 µM [3]: 22.8 min | CLint scaled at 0.5 µM [4]: 4.21 L/h/kg | solubility kinetic [5]: 4.01 µg/mL (≈ 15.3 µM)

O=C1Nc2ccccc2/C1=C1/Nc2ccc(C(=O)N3CCN(C(=O)CCl)CC3)cc2C1=O
IC50 (HCT-116 [1]): 2.31 µM

C#CC(=O)N1CCN(c2ccc(NC(=O)c3ccc4c(c3)C(=O)/C(=C3/C(=O)Nc5ccccc53)N4)cc2)CC1
IC50 (HCT-116 [1]): > 20 µM

O=C1Nc2ccccc2/C1=C1/Nc2ccc(C(=O)NCC3CCN(C(=O)CCl)CC3)cc2C1=O
IC50 [6]: 6.48 µM | inhibition (HCT-116 [7]): Active | inhibition in vivo at 50 mg/kg (HCT-116 [8]): 71.5% | Activity (HCT-116 [9]): Active | Activity (HCT-116 [10]): inactive | inhibition [11]: Dose-Dependent Effect | Activity [12]: Non-Toxic | inhibition (HCT-116 [13]): Active | IC50 (HCT-116 [1]): 0.49 µM | CLhep predicted at 0.5 µM [2]: 1.02 L/h/kg | inhibition [14]: Tde | inhibition [15]: Active | Activity [16]: Non-Toxic | Activity (HCT-116 [17]): Active | inhibition (HCT-116 [18]): inactive | Activity [19]: Non-Toxic | Activity [20]: Non-Toxic | inhibition (HCT-116 [21]): Active | Activity (HCT-116 [22]): Dose-Dependent Effect | Activity (HCT-116 [23]): inactive | half-life at 0.5 µM [3]: 17.1 min | CLint scaled at 0.5 µM [4]: 5.73 L/h/kg | Activity (HCT-116 [24]): Dose-Dependent Effect | inhibition (HCT-116 [25]): Dose-Dependent Effect | Activity [26]: Non-Toxic | inhibition (HCT-116 [27]): Active | Activity (HCT-116 [28]): inactive | inhibition (HCT-116 [29]): inactive | Activity [30]: Non-Toxic | inhibition in vivo at 25 mg/kg (HCT-116 [31]): 63.4% | solubility kinetic [5]: < 0.5 µg/mL | Activity (HCT-116 [32]): Active | Activity (HCT-116 [33]): Dose-Dependent Effect | inhibition (HCT-116 [34]): inactive | Activity (HCT-116 [35]): inactive

O=C1Nc2ccccc2/C1=C1/Nc2ccc(C(=O)NCCN3CCN(C(=O)CCl)CC3)cc2C1=O
IC50 (HCT-116 [1]): 2.27 µM

C#CC(=O)N1CCC(CNC(=O)c2ccc3c(c2)C(=O)/C(=C2/C(=O)Nc4ccccc42)N3)CC1
IC50 (HCT-116 [1]): 1 µM

CC(=O)N1CCC(NC(=O)c2ccc3c(c2)C(=O)/C(=C2/C(=O)Nc4ccccc42)N3)CC1
IC50 (HCT-116 [1]): 4.05 µM

C=CC(=O)CCCC(=O)c1ccc2c(c1)C(=O)/C(=C1/C(=O)Nc3ccccc31)N2
IC50 (HCT-116 [1]): > 20 µM

O=C1Nc2ccccc2/C1=C1/Nc2ccc(C(=O)Nc3ccc(N4CCN(C(=O)CCl)CC4)cc3)cc2C1=O
IC50 (HCT-116 [1]): 7.54 µM

C=CC(=O)CCCCCC(=O)c1ccc2c(c1)C(=O)/C(=C1/C(=O)Nc3ccccc31)N2
IC50 (HCT-116 [1]): 13.1 µM

O=C(CCl)CCC(=O)c1ccc2c(c1)C(=O)/C(=C1/C(=O)Nc3ccccc31)N2
IC50 (HCT-116 [1]): > 20 µM

C#CC(=O)N1CCN(C(=O)c2ccc3c(c2)C(=O)/C(=C2/C(=O)Nc4ccccc42)N3)CC1
IC50 (HCT-116 [1]): 6.39 µM

C#CC(=O)CCC(=O)c1ccc2c(c1)C(=O)/C(=C1/C(=O)Nc3ccccc31)N2
IC50 (HCT-116 [1]): > 20 µM
